Assay results from PubChem BioAssay AID256 (DTP/NCI, 2004).
Several values for one entry are separate records, joined by “and”; a condition that tells them apart may be missing. Equal entries are not always repeated. Toxic doses and inconclusive results are not listed. How the source made its calls: active means survival T/C of 150% or more; inactive means T/C below 125% in these data.

System: CD2F1 mice, L1210 leukemia ip, survival T/C
Assay: NCI In Vivo Anticancer Drug Screen. Data for tumor model L1210 Leukemia (intraperitoneal) in CD2F1 (CDF1) mice
Settings: higher = longer survival
Summary of the method: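 Transplantable tumor in mice; compound-treated vs vehicle-treated groups. Read-out = treated/control ratio of the measured endpoint.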

[1] = endpoint: mean survival time, dose: 100.0 mg/kg/injection, schedule: Q01DX009 (ip), vehicle: saline with Tween-80
[2] = endpoint: mean survival time, dose: 200.0 mg/kg/injection, schedule: Q01DX009 (ip), vehicle: saline with Tween-80
[3] = endpoint: mean survival time, dose: 400.0 mg/kg/injection, schedule: Q01DX009 (ip), vehicle: saline with Tween-80
[4] = endpoint: median survival time, dose: 25.0 mg/kg/injection, schedule: Q04DX003 (ip), vehicle: saline with Tween-80
[5] = endpoint: mean survival time, dose: 100.0 mg/kg/injection, schedule: Q04DX003 (ip), vehicle: saline with Tween-80
[6] = endpoint: mean survival time, dose: 200.0 mg/kg/injection, schedule: Q04DX003 (ip), vehicle: saline with Tween-80
[7] = endpoint: mean survival time, dose: 400.0 mg/kg/injection, schedule: Q04DX003 (ip), vehicle: saline with Tween-80
[8] = endpoint: mean survival time, dose: 50.0 mg/kg/injection, schedule: Q01DX009 (ip), vehicle: saline with Tween-80
[9] = endpoint: mean survival time, dose: 6.25 mg/kg/injection, schedule: Q01DX009 (ip), vehicle: Klucel (hydroxypropylcellulose) (HPC)
[10] = endpoint: mean survival time, dose: 12.5 mg/kg/injection, schedule: Q01DX009 (ip), vehicle: Klucel (hydroxypropylcellulose) (HPC)
[11] = endpoint: mean survival time, dose: 25.0 mg/kg/injection, schedule: Q01DX009 (ip), vehicle: Klucel (hydroxypropylcellulose) (HPC)
[12] = endpoint: mean survival time, dose: 25.0 mg/kg/injection, schedule: Q01DX009 (ip), vehicle: saline with Tween-80

Measured: T/C

CC(CC(C)O)=NCCN=C(C)CC(C)O.[Ni] (stereo not given)
inactive: endpoint: mean survival time, dose: 1.5 mg/kg/injection, schedule: Q01DX009 (ip), vehicle: saline with Tween-80 103 % of control | endpoint: mean survival time, dose: 3.0 mg/kg/injection, schedule: Q01DX009 (ip), vehicle: saline with Tween-80 101 % of control | endpoint: mean survival time, dose: 6.0 mg/kg/injection, schedule: Q01DX009 (ip), vehicle: saline with Tween-80 105 % of control | endpoint: mean survival time, dose: 12.5 mg/kg/injection, schedule: Q01DX001 (ip), vehicle: saline 102 % of control | endpoint: mean survival time, dose: 25.0 mg/kg/injection, schedule: Q01DX001 (ip), vehicle: saline 112 % of control

COC(=O)CC1(C(=O)OC)OC(=O)c2ccccc2N1C (stereo not given)
inactive: [1] 103 % of control | [2] 106 % of control | [3] 101 % of control

CCSC1=NCCCS1
inactive: endpoint: mean survival time, dose: 75.0 mg/kg/injection, schedule: Q01DX001 (ip), vehicle: other 97 % of control | endpoint: mean survival time, dose: 150.0 mg/kg/injection, schedule: Q01DX001 (ip), vehicle: other 98 % of control | endpoint: mean survival time, dose: 300.0 mg/kg/injection, schedule: Q01DX001 (ip), vehicle: other 95 % of control

C=C(C)[C@]12CC(C)C34OC(/C=C\C=C\CCCCCCCCC)(O[C@@H]1[C@@H]3[C@@H]1O[C@]1(CO)[C@@H](O)[C@]1(O)C(=O)C(C)=C[C@@H]41)O2 (stereo not given in full)
inactive: endpoint: mean survival time, dose: 0.01 mg/kg/injection, schedule: Q01DX009 (ip), vehicle: distilled water + alcohol 102 % of control | endpoint: mean survival time, dose: 0.02 mg/kg/injection, schedule: Q01DX009 (ip), vehicle: distilled water + alcohol 94 % of control | endpoint: mean survival time, dose: 0.04 mg/kg/injection, schedule: Q01DX009 (ip), vehicle: distilled water + alcohol 100 % of control | endpoint: mean survival time, dose: 0.09 mg/kg/injection, schedule: Q01DX009 (ip), vehicle: alcohol 95 % of control | endpoint: mean survival time, dose: 0.09 mg/kg/injection, schedule: Q01DX009 (ip), vehicle: distilled water + alcohol 96 % of control | endpoint: mean survival time, dose: 0.19 mg/kg/injection, schedule: Q01DX009 (ip), vehicle: alcohol 100 % of control | endpoint: mean survival time, dose: 0.38 mg/kg/injection, schedule: Q01DX009 (ip), vehicle: alcohol 101 % of control | endpoint: mean survival time, dose: 0.75 mg/kg/injection, schedule: Q01DX009 (ip), vehicle: alcohol 112 % of control | endpoint: mean survival time, dose: 1.5 mg/kg/injection, schedule: Q01DX009 (ip), vehicle: alcohol 117 % of control

NCc1ncn[nH]1
inactive: endpoint: mean survival time, dose: 100.0 mg/kg/injection, schedule: Q04DX003 (ip), vehicle: saline 100 % of control | endpoint: mean survival time, dose: 200.0 mg/kg/injection, schedule: Q04DX003 (ip), vehicle: saline 96 % of control

OC1C2c3ccccc3C(c3c2ccc2ccccc32)C1O (stereo not given)
inactive: [4] 100 % of control | endpoint: median survival time, dose: 50.0 mg/kg/injection, schedule: Q04DX003 (ip), vehicle: saline with Tween-80 100 % of control | endpoint: median survival time, dose: 100.0 mg/kg/injection, schedule: Q04DX003 (ip), vehicle: saline with Tween-80 100 % of control | endpoint: median survival time, dose: 200.0 mg/kg/injection, schedule: Q04DX003 (ip), vehicle: saline with Tween-80 88 % of control

Cc1cc(C)c(S(=O)(=O)n2ccnc2)c(C)c1
inactive: endpoint: mean survival time, dose: 50.0 mg/kg/injection, schedule: Q01DX009 (ip), vehicle: Klucel (hydroxypropylcellulose) (HPC) 94 % of control | endpoint: mean survival time, dose: 100.0 mg/kg/injection, schedule: Q01DX009 (ip), vehicle: Klucel (hydroxypropylcellulose) (HPC) 94 % of control | endpoint: mean survival time, dose: 200.0 mg/kg/injection, schedule: Q01DX009 (ip), vehicle: Klucel (hydroxypropylcellulose) (HPC) 105 % of control

O=C(OCC1OCOC(COC(=O)c2ccccc2)C(O)C1O)c1ccccc1 (stereo not given)
inactive: [5] 97 % of control | [6] 97 % of control | [7] 86 % of control

CC(=O)OCC(OC(C)=O)C(OC(C)=O)C(OC(C)=O)C(OC(C)=O)C(=O)C=O (stereo not given)
inactive: [8] 101 % of control | [1] 101 % of control | [2] 109 % of control

COC(=O)c1cc2ccccc2cc1OC
inactive: [1] 102 % of control | [5] 95 % of control | [2] 109 % of control | [6] 97 % of control | [3] 101 % of control | [7] 97 % of control

Cc1cc(N=CN(C)C)c2ccccc2n1
inactive: endpoint: mean survival time, dose: 3.12 mg/kg/injection, schedule: Q01DX009 (ip), vehicle: other 106 % of control | endpoint: mean survival time, dose: 6.25 mg/kg/injection, schedule: Q01DX009 (ip), vehicle: other 100 % of control | endpoint: mean survival time, dose: 12.5 mg/kg/injection, schedule: Q01DX009 (ip), vehicle: other 100 % of control | endpoint: mean survival time, dose: 25.0 mg/kg/injection, schedule: Q01DX009 (ip), vehicle: other 106 % of control and 107 % of control

O=S(=O)([O][Hg][CH2]C1Cc2ccccc2O1)[O][Hg][CH2]C1Cc2ccccc2O1 (stereo not given)
inactive: [9] 95 % of control | [10] 92 % of control | [11] 96 % of control | endpoint: median survival time, dose: 6.25 mg/kg/injection, schedule: Q04DX003 (ip), vehicle: saline with Tween-80 100 % of control | endpoint: median survival time, dose: 12.5 mg/kg/injection, schedule: Q04DX003 (ip), vehicle: saline with Tween-80 100 % of control | [4] 100 % of control

CCCCOC(N)=O
inactive: [1] 100 % of control | [2] 105 % of control | [3] 97 % of control

CCOc1cccc(Cl)n1
inactive: [1] 94 % of control | [5] 101 % of control | [2] 102 % of control | [6] 98 % of control | [7] 98 % of control

OCC1CCC(CO)CC1 (stereo not given)
inactive: [9] 100 % of control | [10] 95 % of control | [11] 103 % of control

COC(=O)CCC(C)C1CCC2C3C(O)CC4CC(O)CCC4(C)C3CC(O)C12C (stereo not given)
inactive: [12] 96 % of control | [8] 93 % of control | [1] 95 % of control and 100 % of control

NCc1ccc([N+](=O)[O-])cc1Cl
inactive: [8] 94 % of control | [1] 94 % of control

O=C(COc1ccc(Cl)c(Cl)c1)Nc1ccc(Cl)cc1
inactive: endpoint: mean survival time, dose: 6.25 mg/kg/injection, schedule: Q01DX009 (ip), vehicle: saline with Tween-80 98 % of control | endpoint: mean survival time, dose: 12.5 mg/kg/injection, schedule: Q01DX009 (ip), vehicle: saline with Tween-80 98 % of control | [12] 98 % of control

CC(=O)OC1(/N=[N+](/C)[O-])CCCC1
inactive: [5] 95 % of control
active: endpoint: mean survival time, dose: 50.0 mg/kg/injection, schedule: Q04DX003 (ip), vehicle: saline with Tween-80 167 % of control

COc1cccc(C(=O)c2ccncc2C)c1OC
inactive: endpoint: mean survival time, dose: 12.5 mg/kg/injection, schedule: Q01DX009 (ip), vehicle: water 89 % of control | endpoint: mean survival time, dose: 25.0 mg/kg/injection, schedule: Q01DX009 (ip), vehicle: water 93 % of control | endpoint: mean survival time, dose: 50.0 mg/kg/injection, schedule: Q01DX009 (ip), vehicle: water 93 % of control | endpoint: mean survival time, dose: 100.0 mg/kg/injection, schedule: Q01DX009 (ip), vehicle: water 93 % of control | endpoint: mean survival time, dose: 200.0 mg/kg/injection, schedule: Q01DX009 (ip), vehicle: water 96 % of control

Cc1ccnc(-n2c(N)cc(=O)[nH]c2=S)c1
inactive: [5] 97 % of control | [6] 97 % of control | [7] 96 % of control

O=c1[nH]cccc1O
active: endpoint: median survival time, dose: 266.0 mg/kg/injection, schedule: Q03HX027 (ip), vehicle: saline with Tween-80 155 % of control
inactive: endpoint: median survival time, dose: 50.0 mg/kg/injection, schedule: Q01DX009 (ip), vehicle: saline with Tween-80 103 % of control and 104 % of control and 108 % of control | endpoint: median survival time, dose: 62.5 mg/kg/injection, schedule: Q01DX009 (ip), vehicle: saline with Tween-80 102 % of control | endpoint: median survival time, dose: 66.7 mg/kg/injection, schedule: Q03HX027 (ip), vehicle: saline with Tween-80 96 % of control | endpoint: median survival time, dose: 125.0 mg/kg/injection, schedule: Q01DX009 (ip), vehicle: saline with Tween-80 113 % of control | endpoint: median survival time, dose: 133.0 mg/kg/injection, schedule: Q03HX027 (ip), vehicle: saline with Tween-80 103 % of control | endpoint: median survival time, dose: 250.0 mg/kg/injection, schedule: Q01DX009 (ip), vehicle: saline with Tween-80 116 % of control

NC(=O)C1=CC2C3C=CC2(O)C(=O)OC3O1 (stereo not given)
inactive: endpoint: median survival time, dose: 1.9 mg/kg/injection, schedule: Q01DX009 (ip), vehicle: Klucel (hydroxypropylcellulose) (HPC) 108 % of control | endpoint: median survival time, dose: 3.75 mg/kg/injection, schedule: Q01DX009 (ip), vehicle: Klucel (hydroxypropylcellulose) (HPC) 120 % of control | endpoint: median survival time, dose: 7.5 mg/kg/injection, schedule: Q01DX009 (ip), vehicle: Klucel (hydroxypropylcellulose) (HPC) 118 % of control | endpoint: median survival time, dose: 15.0 mg/kg/injection, schedule: Q01DX009 (ip), vehicle: Klucel (hydroxypropylcellulose) (HPC) 117 % of control | endpoint: median survival time, dose: 30.0 mg/kg/injection, schedule: Q01DX009 (ip), vehicle: Klucel (hydroxypropylcellulose) (HPC) 121 % of control and 110 % of control

CCN(CC)CCNc1cc2c3ccccc3ccc2c2ccccc12
inactive: endpoint: mean survival time, dose: 100.0 mg/kg/injection, schedule: Q01DX001 (ip), vehicle: saline with Tween-80 88 % of control | endpoint: mean survival time, dose: 200.0 mg/kg/injection, schedule: Q01DX001 (ip), vehicle: saline with Tween-80 95 % of control | endpoint: mean survival time, dose: 400.0 mg/kg/injection, schedule: Q01DX001 (ip), vehicle: saline with Tween-80 100 % of control
